# Data from patent US9994547B2, “Heteroarylamide inhibitors of TBK1” (Takeda Pharmaceutical Company Limited, priority 2014, dated 2018).
# System: C57/BL6 mice
# Experiment: Inhibition of ConA Induced Hepatitis (Example B)
# Format: in vivo
# Conditions: Mus musculus; oral, 1 hr before ConA 15 mg/kg i.v.; plasma ALT post 8-24 hrs; read-out: ED50 (amount of test compound that reduces ConA induced increase in plasma ALT level by 50%)
# Protocol: Orally administer compound into normal C57/BL6 mice at several doses. After 1 hr, inject i.v. with ConA 15 mg/kg, (N=5). Post 8-24 hrs, collect plasma and liver. Measure plasma ALT enzyme level. An ED50 is determined as the amount of test compound that reduces ConA induced increase in plasma ALT level by 50%.
row,SMILES,ED50 [mg/kg]
1,"C[C@H](Nc1cc(-c2cnc(NC(=O)C3CC3)cn2)ccc1C#N)C(=O)N(C)C [Example 1, (S)-N-(5-(4-cyano-3-((1-(dimethylamino)-1-oxopropan-2-yl)amino)phenyl)pyrazin-2-yl)cyclopropanecarboxamide]",5

# Target: Full length human TBK1 (Homo sapiens (Human), UniProt Q9UHD2)
# Sequence (Q9UHD2 whole entry): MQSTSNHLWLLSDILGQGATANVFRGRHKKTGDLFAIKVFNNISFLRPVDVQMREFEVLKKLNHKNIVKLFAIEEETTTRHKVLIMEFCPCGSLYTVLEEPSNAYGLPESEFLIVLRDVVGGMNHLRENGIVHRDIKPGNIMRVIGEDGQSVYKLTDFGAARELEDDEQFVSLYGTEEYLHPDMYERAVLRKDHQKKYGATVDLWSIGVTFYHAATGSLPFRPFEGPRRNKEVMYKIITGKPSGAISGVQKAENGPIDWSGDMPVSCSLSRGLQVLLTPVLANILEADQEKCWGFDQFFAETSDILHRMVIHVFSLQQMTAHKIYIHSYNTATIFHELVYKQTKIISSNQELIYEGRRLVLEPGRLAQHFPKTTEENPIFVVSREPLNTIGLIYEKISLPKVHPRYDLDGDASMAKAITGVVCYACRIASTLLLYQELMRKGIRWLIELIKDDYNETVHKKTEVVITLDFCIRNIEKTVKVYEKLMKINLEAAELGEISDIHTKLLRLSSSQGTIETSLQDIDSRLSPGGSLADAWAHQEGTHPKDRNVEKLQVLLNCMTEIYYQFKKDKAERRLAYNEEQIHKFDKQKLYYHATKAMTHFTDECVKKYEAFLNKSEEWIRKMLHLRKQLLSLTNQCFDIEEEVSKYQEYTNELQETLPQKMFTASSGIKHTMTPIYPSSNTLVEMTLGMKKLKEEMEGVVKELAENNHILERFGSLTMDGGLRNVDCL
# Experiment: Inhibition of TBK1 Enzyme (Example A)
# Format: biochemical
# Conditions: -log(IC50), IC50 molar; 3 nM TBK1, 25 μM ATP, 60 min RT
# In short: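 Full-length N-His human TBK1 from Sf9 baculovirus was tested with 11-point 2.5-fold dilutions (1% DMSO) in Hepes pH 7.4, MgCl2, EDTA, Brij, DTT. After 60 min RT and EDTA quench, microfluidic conversion was fitted and reported as pIC50.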
row,SMILES,TBK1 Inhibition (pIC50)
1,"C[C@H](Nc1cc(-c2cnc(NC(=O)C3CC3)cn2)ccc1C#N)C(=O)N(C)C [Example 1, (S)-N-(5-(4-cyano-3-((1-(dimethylamino)-1-oxopropan-2-yl)amino)phenyl)pyrazin-2-yl)cyclopropanecarboxamide]",8.1
2,"C[C@H](Nc1cc(-c2cnc(NC(=O)C3CC3)cn2)ccc1C#N)C(=O)N1CCC1 [Example 9, (S)-N-(5-(3-((1-(azetidin-1-yl)-1-oxopropan-2-yl)amino)-4-cyanophenyl)pyrazin-2-yl)cyclopropanecarboxamide]",6.7
3,"CCC(Nc1cc(-c2cnc(NC(=O)C3CC3)cn2)cnc1C#N)C(=O)N(C)C1CC1 (stereo not shown) [Example 36, N-(5-(6-cyano-5-((1-(cyclopropyl(methyl)amino)-1-oxobutan-2-yl)amino)pyridin-3-yl)pyrazin-2-yl)cyclopropanecarboxamide]",7.3

# Results, then the compound that gave them:
row,TBK1 Inhibition (pIC50),SMILES
1,7.6,"C[C@H](Nc1cc(-c2cnc(NC(=O)C3CC3)cn2)cnc1C#N)C(=O)N(C)C [Example 129, (S)-N-(5-(6-cyano-5-((1-(dimethylamino)-1-oxopropan-2-yl)amino)pyridin-3-yl)pyrazin-2-yl)cyclopropanecarboxamide]"
2,6.0,"C[C@H](Nc1cc(-c2cnc(NC(=O)C3CC3)cn2)cnc1C#N)C(=O)N1CCO[C@H]1C(F)(F)F [Example 61, N-(5-(6-cyano-5-((S)-1-oxo-1-((S)-2-(trifluoromethyl)oxazolidin-3-yl)propan-2-ylamino)pyridin-3-yl)pyrazin-2-yl)cyclopropanecarboxamide]"
3,7.6,"C[C@H](Nc1cc(-c2cnc(NC(=O)C3CC3)cn2)cnc1C#N)C(=O)N1CCC[C@@H]1C#N [Example 55, N-(5-(6-cyano-5-(((S)-1-((R)-2-cyanopyrrolidin-1-yl)-1-oxopropan-2-yl)amino)pyridin-3-yl)pyrazin-2-yl)cyclopropanecarboxamide]"
